# According to PMC4240912, “Multifaceted interplay between lipophilicity, protein interaction and luminescence parameters of non-intercalative ruthenium(II) polypyridyl complexes controlling cellular imaging and cytotoxic properties” (Journal of Biological Inorganic Chemistry, 2014):
# Like-named read-outs stand apart in the source and are kept apart here.
# Key:
# [1] = system: 4T1 breast cancer cell line; experiment: Alamar Blue cell viability, 4T1; assay type: cell-based; settings: 4T1, 24 h incubation
# Description: 4T1 breast cancer cell line was cultured in RPMI-1640 (Gibco Invitrogen) with 10 % fetal bovine serum (FBS, the bovine serum albumin is a major component), 1 % penicillin and streptomycin and 0.2 % fungizone. Cells were routinely cultured at 37 °C in a humidified incubator in 5 % CO2 atmosphere. Cell viability was measured using Alamar Blue assay. Cells were seeded on 96-well plate with density of 10^4 cells per cm^2 and cultured for 24 h in medium with or without 2 % serum. Then cells were incubated with various concentrations of ruthenium compounds for 24 h in the dark. All used ruthenium complexes were freshly diluted in DMSO and then added to the appropriate medium to obtain the applied concentrations. The final DMSO concentration was kept constant at 0.05 % (v/v). Next cells were washed with PBS and incubated in AlamarBlue solution (21 times diluted in PBS) for 3 h. Alamar Blue test is based on the reduction of blue and non-fluorescent subtract (resazurin) to a pink and highly fluorescent product (resorufin) by the alive cells. Extract mechanism of the reduction is still unknown, but it is postulated that reduction occurs by mitochondrial or cytoplasmic enzymes, such as NADH dehydrogenase or diaphorase. It is still not known whether this process occurs intracellularly, at the plasma membrane surface or just in the medium as a chemical reaction. The cell viability was quantified at 605 nm using 560 nm excitation light (VICTOR 3V multilabel plate readers, PerkinElmer). Experiments were performed in triplicates and each experiment was performed at least three times to get the mean values ± standard deviation. The viability was calculated with regard to the untreated cells control. The IC50 values were determined using Hill equation (Origin 9.0): y=y0+y100-y0c^H/IC50^H+c^H
# [2] = system: Human lung adenocarcinoma epithelial cell line (A549); experiment: Alamar Blue cell viability, A549; assay type: cell-based; settings: A549, 24 h
# Description: (§1) 10% FBS, 1% peniciline and streptomycin and 0.2% fungizone. Cells were routinely cultured at 37 °C in a humidified incubator in 5% CO2 atmosphere.
# (§2) Cell viability was measured using Alamar Blue assay. Cells were seeded on 96 wells plate with density of 1 × 10^4 cells per cm2 and cultured for 1 day. Then cells were incubated with various concentrations of compounds in medium with or without 2% FBS for 24 and 48 h under normoxic and hypoxic conditions in the darkness. Next cells were washed with PBS and incubated in Alamar Blue solution for 3 h. The cell viability was quantified at 605 nm using 560 nm excitation light (VICTOR 3V multilabel plate reader PerkinElmer or Tecan Infinite200 Reader). Experiments were performed in triplicates and each experiment was performed at least three times to get the mean values ± standard derivation. The viability was calculated with regard to the untreated cells control. The IC50 values were determined using Hill equation (Origin 9.0). […]
# [3] = system: FVB mouse lung microvascular endothelial cells (MLuMEC FVB); experiment: Alamar Blue cell viability, MLuMEC; assay type: cell-based; settings: 24 h
# Description: (§3) FVB mouse lung microvascular endothelial cells (MLuMEC FVB) and murine endothelial cells isolated from aorta-gonad-mesonephros (AGM) region of 10.5 dpc embryos (MAgEC 10.5) were cultured in OptiMEM with Glutamax-I (Gibco Invitrogen) supplemented with 2% fetal bovine serum (FBS), 0.4% gentamycin and 0.2% fungizone. […]
# as §1, §2
# [4] = system: murine endothelial cells isolated from aorta-gonad-mesonephros (AGM) region of 10.5 dpc embryos (MAgEC 10.5); experiment: Alamar Blue cell viability, MAgEC 10.5; assay type: cell-based; settings: MAgEC 10.5, 24 h
# Description: as §3, §1, §2
# [5] = aqueous solution, cited from earlier work
Structure (SMILES),IC50 ([1]; medium with serum (2 %)) [µM],IC50 ([1]; medium without serum) [µM],IC50 ([2]; with serum (2%)) [µM],IC50 ([2]; without serum) [µM],IC50 ([3]; with serum (2%)) [µM],IC50 ([3]; without serum) [µM],IC50 ([4]; with serum (2%)) [µM],IC50 ([4]; without serum) [µM],"Φ, quantum yield of luminescence (standard) ([5]; air-equilibrium conditions, ref [14])","Φ, quantum yield of luminescence (standard) ([5]; deoxygenated conditions, ref [20])"
"N.N.[Cl][Pt][Cl] [Cisplatin, reference compound]",59.8 ± 8.32,73 ± 14.9,71.3 ± 22.9,126 ± 30.5,14.5 ± 1.4,24.6 ± 2.89,8.75 ± 0.2,9.38 ± 0.67,–,–
"[Ru+2].c1ccc(-c2ccccn2)nc1.c1ccc(-c2ccccn2)nc1.c1ccc(-c2ccccn2)nc1 [[Ru(bpy)3]^2+, reference compound]",–,–,–,–,–,–,–,–,0.028,0.042
